Experimental data from ChEMBL document CHEMBL1132743, “Synthesis and biological evaluation of novel piperidine carboxamide derived calpain inhibitors” (Bioorg Med Chem Lett, 2000).
Square brackets hold non-standard residues; d marks the D form. Peptide text beside a SMILES is read from it. * marks the point of attachment. ξ: configuration not given here. ξF = NC(Cc1ccccc1)C(=O)O; Cbz = O=C(OCc1ccccc1)*

Tests used:
[1] = molecular target: T1, Calpain-1 catalytic subunit (Homo sapiens, UniProt P07384); assay: Inhibition of Suc-Leu-Tyr-AMC binding to human mu-calpain from erythrocytes; type: biochemical
T1 sequence (P07384 whole entry): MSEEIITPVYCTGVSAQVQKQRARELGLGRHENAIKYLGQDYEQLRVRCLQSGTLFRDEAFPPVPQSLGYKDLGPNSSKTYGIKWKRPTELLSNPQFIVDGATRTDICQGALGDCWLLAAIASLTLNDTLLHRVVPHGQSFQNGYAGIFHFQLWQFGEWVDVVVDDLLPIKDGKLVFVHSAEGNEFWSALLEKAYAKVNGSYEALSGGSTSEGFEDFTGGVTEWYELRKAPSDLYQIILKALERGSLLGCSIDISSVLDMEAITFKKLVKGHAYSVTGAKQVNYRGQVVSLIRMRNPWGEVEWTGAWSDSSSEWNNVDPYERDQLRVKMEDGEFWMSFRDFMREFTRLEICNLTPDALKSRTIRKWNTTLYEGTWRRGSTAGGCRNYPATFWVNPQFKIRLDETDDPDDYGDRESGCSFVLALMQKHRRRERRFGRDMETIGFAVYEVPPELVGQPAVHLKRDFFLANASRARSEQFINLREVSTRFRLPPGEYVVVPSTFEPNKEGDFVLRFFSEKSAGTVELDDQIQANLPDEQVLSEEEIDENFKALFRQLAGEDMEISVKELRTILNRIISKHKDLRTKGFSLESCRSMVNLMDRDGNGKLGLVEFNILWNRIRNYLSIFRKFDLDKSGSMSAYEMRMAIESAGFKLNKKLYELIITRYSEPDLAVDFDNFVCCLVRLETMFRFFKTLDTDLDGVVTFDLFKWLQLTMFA

Cathepsin B = Cathepsin B (Homo sapiens, UniProt P07858); assay: Inhibition of human Cathepsin B
Mus musculus = organism: Mus musculus; assay: Inhibitory activity of compound was tested for lethal convulsions induced by NMDA in mice; type: functional
[2] = Inhibition of calpain-mediated pp60src degradation in platelets; type: functional, Homo sapiens

| SMILES | Ki [1] [nM] | also measured |
| --- | --- | --- |
| NC(=O)C(=O)C(Cc1ccccc1)NC(=O)C1CCN(C(=O)c2ccc3ccccc3c2)CC1 (stereo not given) | 30 | Ki (Cathepsin B): 7300 nM; ED50 (Mus musculus): 1.3 mg/kg; IC50 [2]: 1800 nM |
| CC(C)[C@H](NC(=O)OCc1ccccc1)C(=O)NC(C=O)Cc1ccccc1 (stereo partly drawn) (Cbz-Val-[ξF]-aldehyde) |  | IC50 [2]: 700 nM |
| O=C(NCCCN1CCOCC1)C(=O)C(Cc1ccccc1)NC(=O)C1CCN(S(=O)(=O)c2ccc3ccccc3c2)CC1 (stereo not given) | 810 |  |
| CCC(NC(=O)C1CCN(C(=O)/C=C/c2ccccc2)CC1)C(=O)C(N)=O (stereo not given) | 33000 |  |
| NC(=O)C(=O)C(Cc1ccccc1)NC(=O)C1CCN(C(=O)/C=C/c2ccncc2)CC1 (stereo not given) | 13500 |  |
| CC(C)CC(NC(=O)C1CCN(C(=O)/C=C/c2ccccc2)CC1)C(=O)C(N)=O (stereo not given) | 1350 |  |
| NC(=O)C(=O)C(Cc1ccccc1)NC(=O)C1CCN(C(=O)c2cc3ccccc3s2)CC1 (stereo not given) | 9 | Ki (Cathepsin B): 3200 nM; ED50 (Mus musculus): 1 mg/kg |

Now from value to molecule, other results behind:

| Ki [1] [nM] | SMILES | also measured |
| --- | --- | --- |
| 160 | NC(=O)C(=O)C(Cc1ccccc1)NC(=O)C1CCN(C(=O)c2ccc3ncccc3c2)CC1 (stereo not given) |  |
| 460 | NC(=O)C(=O)C(Cc1ccccc1)NC(=O)C1CCN(C(=O)/C=C/c2ccccc2)CC1 (stereo not given) |  |
| 13600 | NC(=O)C(=O)C(Cc1ccccc1)NC(=O)C1CCN(Cc2ccc3ccccc3c2)CC1 (stereo not given) |  |
| 960 | O=C(NCCCN1CCOCC1)C(=O)C(Cc1ccccc1)NC(=O)C1CCN(C(=O)c2ccc3ccccc3c2)CC1 (stereo not given) |  |
| 450 | NC(=O)C(=O)C(Cc1ccccc1)NC(=O)C1CCN(S(=O)(=O)c2ccc3ccccc3c2)CC1 (stereo not given) |  |
| 560 | NC(=O)C(=O)C(Cc1ccccc1)NC(=O)C1CCN(C(=O)c2ccccc2)CC1 (stereo not given) |  |
| 670 | NC(=O)C(=O)C(Cc1ccccc1)NC(=O)C1CCN(C(=O)c2cnc3ccccc3c2)CC1 (stereo not given) |  |
| 800000 | CCNC(=O)C(=O)C(Cc1ccccc1)NC(=O)C1CCN(S(=O)(=O)c2ccc3ccccc3c2)CC1 (stereo not given) |  |
